What is called EC50 is the concentration needed to bring the measured effect to its halfway point. As a reminder, the IC50 is the concentration needed to halve the response being measured. Low readings indicate inhibition by little substance, high ones a need for much substance.

Test [1] concerns the target T1, Peroxisome proliferator-activated receptor gamma (Homo sapiens, UniProt P37231).
T1 sequence (P37231 whole entry): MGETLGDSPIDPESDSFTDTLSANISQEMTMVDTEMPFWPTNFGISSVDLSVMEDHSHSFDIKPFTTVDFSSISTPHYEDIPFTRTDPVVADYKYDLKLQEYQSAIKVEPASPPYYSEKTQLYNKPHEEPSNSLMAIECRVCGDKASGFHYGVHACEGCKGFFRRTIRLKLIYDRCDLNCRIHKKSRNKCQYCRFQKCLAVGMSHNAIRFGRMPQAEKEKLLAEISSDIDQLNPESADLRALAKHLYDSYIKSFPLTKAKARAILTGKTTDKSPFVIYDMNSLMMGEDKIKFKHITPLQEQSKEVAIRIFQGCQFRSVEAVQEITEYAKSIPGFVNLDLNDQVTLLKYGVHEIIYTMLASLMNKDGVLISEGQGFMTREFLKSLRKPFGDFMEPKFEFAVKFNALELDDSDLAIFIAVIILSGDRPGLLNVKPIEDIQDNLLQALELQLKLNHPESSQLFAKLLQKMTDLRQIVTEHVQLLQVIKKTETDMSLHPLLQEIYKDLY
Description: Agonist activity at GAL4 tagged human PPARgamma ligand binding domain expressed in HEK293 cells by luciferase reporter gene assay. Type of test: cell-based. Background: A reporter such as luciferase makes a cellular process visible.

Test [2] concerns the target T2, Peroxisome proliferator-activated receptor alpha (Homo sapiens, UniProt Q07869).
T2 sequence (Q07869 whole entry): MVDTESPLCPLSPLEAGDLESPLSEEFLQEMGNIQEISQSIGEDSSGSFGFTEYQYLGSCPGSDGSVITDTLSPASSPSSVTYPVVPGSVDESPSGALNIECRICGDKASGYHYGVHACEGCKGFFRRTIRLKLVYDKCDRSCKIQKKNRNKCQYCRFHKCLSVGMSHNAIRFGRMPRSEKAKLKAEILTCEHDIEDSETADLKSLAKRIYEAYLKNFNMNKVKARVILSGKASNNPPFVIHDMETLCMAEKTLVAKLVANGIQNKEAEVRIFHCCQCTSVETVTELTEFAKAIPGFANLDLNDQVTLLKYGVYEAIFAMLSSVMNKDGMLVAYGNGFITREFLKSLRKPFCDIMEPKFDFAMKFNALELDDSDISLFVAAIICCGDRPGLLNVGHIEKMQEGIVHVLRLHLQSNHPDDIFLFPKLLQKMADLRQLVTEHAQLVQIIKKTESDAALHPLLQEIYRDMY
Description: Agonist activity at GAL4 tagged human PPARalpha ligand binding domain expressed in HEK293 cells by luciferase reporter gene assay. Type of test: cell-based.

The target in test [3] is T2, Peroxisome proliferator-activated receptor alpha. Description: Binding affinity to PPARalpha (unknown origin) using fluorescein-tagged dual PPARalpha/gamma activator by homogeneous fluorescence polarization binding assay. Background: Fluorescence polarisation rises when a labelled molecule tumbles more slowly, as on binding a larger partner.
The target of test [4] is T1, Peroxisome proliferator-activated receptor gamma.
Description: Binding affinity to PPARgamma (unknown origin) using fluorescein-tagged dual PPARalpha/gamma activator by homogeneous fluorescence polarization binding assay

As to `Cc1oc(-c2ccccc2)nc1CCOc1cccc(C[C@H]2CN(c3ccccc3)C[C@H]2C(=O)O)c1`, the values for the 50% effective concentration (EC50) in test [1] and in test [2] (read-out: EC50) were above 10000 nM and 680 nM, respectively. In addition, the figures for the IC50 in test [3] and in test [4] were 320 nM and 140 nM, respectively.
Regarding `CCOC(=O)N1C[C@@H](CCc2cccc(OCCc3nc(-c4ccccc4)oc3C)c2)[C@@H](C(=O)O)C1` (racemic), the half-maximal effective concentration (EC50) in test [1] turned out to be 710 nM; in test [2] (read-out: EC50), 200 nM. In addition, the IC50 in test [3] turned out to be 2690 nM; in test [4], 490 nM.
As to `CCOC(=O)N1C[C@@H](Cc2cccc(OCCc3nc(-c4ccccc4)oc3C)c2)[C@@H](CC(=O)O)C1`, the values for the EC50 in test [1] and in test [2] (read-out: EC50) were above 10000 nM and 2870 nM, respectively. Also, the IC50 in test [3] is 5550 nM.
For `Cc1oc(-c2ccccc2)nc1CCOc1ccc([C@@H]2CN(C(=O)Oc3ccccc3)C[C@@H]2CC(=O)O)cc1` (racemic), the 50% effective concentration (EC50) in test [1] is 4180 nM; in test [2] (read-out: EC50) it was above 15000 nM. In addition, the results for the IC50 in test [3] and in test [4] were above 15000 nM and 8310 nM, respectively.
For the compound `CCOC(=O)N1C[C@@H](Cc2cccc(OCCc3nc(-c4ccccc4)oc3C)c2)[C@@H](C(=O)O)C1`, the concentration for a half-maximal effect (EC50) in test [1] came out at 9 nM; in test [2] (read-out: EC50), 3 nM. The same compound had a 50% inhibitory concentration (IC50) in test [3] of 260 nM.
For `Cc1oc(-c2ccccc2)nc1CCOc1ccc(C[C@H]2CN(c3nccc(C(F)(F)F)n3)C[C@@H]2C(=O)O)cc1`, the 50% effective concentration (EC50) in test [1] is above 30000 nM; in test [2] (read-out: EC50), 1000 nM. Also, the IC50 was determined as 1120 nM in test [3] and 3570 nM in test [4].
With `CCOC(=O)N1C[C@H](CC(=O)O)[C@@H](c2cccc(OCCc3nc(-c4ccccc4)oc3C)c2)C1` (racemic), the half-maximal effective concentration (EC50) in test [1] was 9680 nM; in test [2] (read-out: EC50), 8100 nM. In addition, the half-maximal inhibitory concentration (IC50) in test [3] is above 10000 nM; in test [4] it was 5460 nM.
On to `COc1ccc(OC(=O)N2[C@H](C(=O)O)CC[C@H]2c2ccc(OCCc3nc(-c4ccccc4)oc3C)cc2)cc1`, for which the 50% effective concentration (EC50) in test [1] was 50 nM; in test [2] (hek293) it was “Not Active”.
Take `Cc1oc(-c2ccccc2)nc1CCOc1cccc(C[C@@H]2CN(c3ccccc3)C[C@@H]2C(=O)O)c1` (racemic): the EC50 in test [1] is 3410 nM; in test [2] (read-out: EC50), 20 nM. In addition, the IC50 in test [3] is 40 nM; in test [4], 220 nM.
Consider `CCOC(=O)N1C[C@H](CC(=O)O)[C@@H](Cc2cccc(OCCc3nc(-c4ccccc4)oc3C)c2)C1` (racemic), for which the EC50 in test [1] is above 10000 nM; in test [2] (read-out: EC50), 6 nM. In test [3], this compound came in with an IC50 of 2120 nM.
For the compound `Cc1oc(-c2ccccc2)nc1CCOc1cccc([C@@H]2CN(C(=O)Oc3ccccc3)C[C@@H]2C(=O)O)c1` (racemic), the EC50 in test [1] came out at 5650 nM; in test [2] (read-out: EC50) it was 1650 nM. Also, the IC50 in test [3] and in test [4] was above 10000 nM throughout.
`Cc1oc(-c2ccccc2)nc1CCOc1ccc([C@@H]2CN(C(=O)Oc3ccccc3)C[C@@H]2C(=O)O)cc1` (racemic): the concentration giving a half-maximal response (EC50) in test [1] was 4180 nM; in test [2] (read-out: EC50), above 15000 nM. Moreover, the half-maximal inhibitory concentration (IC50) is above 10000 nM in test [3] and 4470 nM in test [4].
Consider `Cc1oc(-c2ccccc2)nc1CCOc1cccc(C[C@H]2CN(C(=O)Oc3ccccc3)C[C@H]2C(=O)O)c1`, for which the 50% effective concentration (EC50) in test [1] amounted to 13300 nM; in test [2] (read-out: EC50), 950 nM. In addition, the half-inhibitory concentration (IC50) in test [3] was 660 nM; in test [4] it was 590 nM.
With `CCOC(=O)N1C[C@@H](Cc2cccc(OCCc3nc(-c4ccccc4)oc3C)c2)[C@@H](C(=O)O)C1` (racemic), the results for the EC50 in test [1] and in test [2] (read-out: EC50) were 750 nM and 10 nM, respectively. In addition, the 50% inhibitory concentration (IC50) in test [3] was 170 nM.
Regarding `CCOC(=O)N1C[C@H](CC(=O)O)[C@H](c2ccc(OCCc3nc(-c4ccccc4)oc3C)cc2)C1` (racemic), the 50% inhibitory concentration (IC50) in test [3] and in test [4] was above 10000 nM throughout.
As to `CCOC(=O)N1C[C@H](Cc2cccc(OCCc3nc(-c4ccccc4)oc3C)c2)[C@H](C(=O)O)C1`, the EC50 was above 10000 nM in test [1] and 10900 nM in test [2] (read-out: EC50). Moreover, the half-maximal inhibitory concentration (IC50) in test [3] is above 10000 nM.
Take `CCOC(=O)N1C[C@H](Cc2cccc(OCCc3nc(-c4ccccc4)oc3C)c2)[C@@H](C(=O)O)C1` (racemic): the EC50 came out at 2850 nM in test [1] and 150 nM in test [2] (read-out: EC50). Also, the IC50 in test [3] was 2120 nM.
